Measured values published in patent US20240299376A1, “METHOD OF TREATING A CONDITION USING A […] EFFECTIVE DOSE OF 1-(1-OXO-1,2-DIHYDROISOQUINOLIN-5-YL)-5-(TRIFLUOROMETHYL)-N-(2-(TRIFLUOROMETHYL)PYRIDIN-4-YL)-1H-PYRAZOLE-4-CARBOXAMIDE” (Janssen Pharmaceutica NV, priority 2021, published 2024).
Like-named read-outs stand apart in the source and are kept apart here.

Legend:
[1] = Single IV dose plasma PK; type: in vivo, mouse
Protocol: (§1) Single intravenous (IV) dose PK was conducted in mice (two strains), rats, monkeys, and dogs at a dose of 1 mg/kg in 70% PEG400 (PEG400/water 70:30) by bolus injection. The time course for plasma sample was optimized to fully characterize the disposition profile in each species. PK analysis was by non-compartmental method.

[2] = Preliminary food effect assessment at steady state; type: in vivo, human
Protocol: Preliminary food effect was assessed in 8 subjects at steady state: 2 subjects at 100 mg (2×50 mg), 1 subject at 400 mg (2×200 mg), 1 subject at 200 mg (4×50 mg) and 4 subjects at 300 mg (3×100 mg). In the fasting condition, JNJ-67856633 was administered after overnight fasting for at least 8 hours. In the fed condition, following an overnight fast of at least 8 hours, the subjects were given a high-fat meal 30 minutes before drug intake. In both conditions, no food was allowed for at least 4 hours after study drug intake. Individual plasma concentrations of JNJ-67856633 under fasting and fed conditions using 50 mg or 200 mg capsules are shown in Table 16.

[3] = test system: human cytokine IL-10 in serum; assay: Serum IL-10 (MSD assay) after a single dose in OCI-LY3 tumor-bearing NSG mice; type: in vivo
Protocol: NF-κB signaling regulates the secretion of multiple cytokines, including interleukin-10 (IL-10). MALT1 inhibition results in a decrease of IL-10 transcription and translation as well as secretion. Levels of the human cytokine IL-10 were measured in the serum of OCI-LY3 or OCI-LY10 ABC-DLBCL tumor bearing mice using a Mesoscale Discovery assay (MSD). 25 μL of mouse serum was transferred to an MSD plate (V-Plex Proinflammation Panel I (human) kit) and incubated together with 25 μL diluent 2 (MSD; R51BB-3) for 2 hours at RT followed by a 2-hour incubation with IL-10 antibody solution. Plates were read on a SECTOR imager. Serum human IL-10 levels were correlated to serum compound concentration.
Serum IL-10 levels are graphed as the mean+/−SD.
For PD, when tumors reached 550-750 mm^3 animals were assigned randomly into the treatment groups and treated as presented in Table 5. Dose volumes were adjusted to individual body weights at 10 mL/kg. For both PD studies, serum was collected at 2 and 12 hours post treatment from the retro-orbital sinus. At 24 hours post treatment, animals were bled via decapitation and tumors were excised, weighed, and divided for bioanalysis and ex vivo PD analysis. Blood was centrifuged at 10,000 rpm and serum divided for bioanalysis and PD analysis.

[4] = test system: IL-10 secretion by OCI-LY3 ABC-DLBCL cells; assay: IL-10 secretion assay (MesoScale Discovery); type: cell-based; conditions: Homo sapiens; supernatants of OCI-LY3 cells, 16 independent experiments
Protocol: NF-κB signaling regulates the secretion of multiple cytokines, including interleukin (IL)-6 and IL-10. Libermann T A et al. Mol Cell Biol. 1990; 10(6):3155-3162; and Cao S, et al. J Biol Chem. 2006; 281(36):26041-26050. Secretion of the cytokines IL-6 and IL-10 by OCI-LY3 ABC-DLBCL cells was measured using a MesoScale Discovery (MSD) assay.

[5] = Single IV dose plasma PK; type: in vivo, monkey
Protocol: as §1

[6] = test system: U2932 (A20/TAK1 mut); assay: Anti-proliferative activity, DLBCL cell line panel; type: cell-based; conditions: Homo sapiens, U2932, 192 h; antiproliferation after 8 days of treatment
[7] = test system: B-cell lymphoma lines; assay: Anti-proliferative activity, panel of 10 B-cell lymphoma lines (general cytotoxicity); type: cell-based
Protocol: Four ABC-DLBCL cell lines with activating mutations in the canonical NFκB pathway were evaluated (OCI-LY3 (CARD11, MYD88 & A20 mutations), TMD8, HBL1, and OCI-LY10 (CD79B & MYD88 mutations)), which are generally sensitive to NF-κB pathway inhibition. None of the GCB-DLBCL cell lines harbor mutations in the NF-κB pathway. The GCB-DLBCL cell lines served as a negative control to exclude compounds with general cytotoxic effects.
At concentrations ≥20 μM general cytotoxicity was observed.

[8] = male, plasma, Mouse, CD-1, 3M, 1 mg/kg IV in 70% PEG400, mean
[9] = male, plasma, Mouse, NSG, 3M, 1 mg/kg IV in 70% PEG400, mean
[10] = male, plasma, Monkey, cynomolgus, 3M, 1 mg/kg IV in 70% PEG400, mean

**Q.** With `O=C(Nc1ccnc(C(F)(F)F)c1)c1cnn(-c2cccc3c(=O)[nH]ccc23)c1C(F)(F)F` [Compound A, 1-(1-oxo-1,2-dihydroisoquinolin-5-yl)-5-(trifluoromethyl)-N-[2-(trifluoromethyl)pyridin-4-yl]-1H-pyrazole-4-carboxamide] as the molecule, how does the Vd ([1]; CD-1 and NSG (mouse), Sprague-Dawley (rat), beagle (dog), plasma, similar across all species (mouse, rat, monkey, dog), IV 1 mg/kg, read-out: apparent volume of distribution at steady state) read?
**A.** ~1 L/kg

**Q.** What about the AUC(0-inf) [1, 8] of the same molecule?
**A.** 12.2 µg·h/mL

**Q.** And the C0 [1, 8]?
**A.** 940 ng/mL

**Q.** And the clearance [1, 8]?
**A.** 1.3 mL/min/kg

**Q.** And the Vd ([1]; male, plasma, Mouse, CD-1, 3M, 1 mg/kg IV in 70% PEG400, mean, read-out: Vdss)?
**A.** 1.4 L/kg

**Q.** And the AUC(0-inf) [1, 9]?
**A.** 5.49 µg·h/mL

**Q.** And the C0 [1, 9]?
**A.** 1130 ng/mL

**Q.** What about the clearance [1, 9] of the same molecule?
**A.** 3.04 mL/min/kg

**Q.** And the half-life [1, 9]?
**A.** 5.28 h

**Q.** What about the Vd ([1]; male, plasma, Mouse, NSG, 3M, 1 mg/kg IV in 70% PEG400, mean, read-out: Vdss) of the same molecule?
**A.** 1.23 L/kg

**Q.** And the “CL as fraction of liver blood flow (LBF)” value ([1]; mouse, LBF 90 mL/min/kg)?
**A.** 1.4%

**Q.** What about the Cmax ([2]; 2 × 50 mg, fasted condition, steady state, individual values, N = 2, listed as JNJ-67856633) of the same molecule?
**A.** 18200 ng/mL

**Q.** And the Cmax ([2]; 2 × 50 mg, fed condition (high-fat meal), steady state, individual values, N = 2, listed as JNJ-67856633)?
**A.** 18400 ng/mL

**Q.** And the AUCτ ([2]; 2 × 50 mg, fed condition, steady state, individual values, N = 2, listed as JNJ-67856633)?
**A.** 421 µg·h/mL

**Q.** And the “steady state exposure (Cmax and AUCτ) fasting vs fed” value ([2]; 8 subjects at steady state)?
**A.** comparable

**Q.** What about the AUC ([2]; human, plasma, oral, 100 mg, 2 × 50 mg, fasted condition, steady state, N = 2) of the same molecule?
**A.** 313 µg·h/mL

**Q.** And the Cmax ([2]; human, plasma, oral, 100 mg, 2 × 50 mg, fasted condition, steady state, individual values, N = 2, read-out: Cmax)?
**A.** 15300 ng/mL

**Q.** What about the Tmax ([2]; human, plasma, oral, 100 mg, 2 × 50 mg, fasted condition, steady state, individual values, N = 2, read-out: Tmax) of the same molecule?
**A.** 2 h

**Q.** What about the Cmax ([2]; human, plasma, oral, 100 mg, 2 × 50 mg, fed condition (high-fat meal), steady state, individual values, N = 2, read-out: Cmax) of the same molecule?
**A.** 13400 ng/mL

**Q.** What about the AUC ([2]; human, plasma, oral, 100 mg, 2 × 50 mg, fed condition, steady state, individual values, N = 2) of the same molecule?
**A.** 304 µg·h/mL

**Q.** What about the Tmax ([2]; human, plasma, oral, 100 mg, 2 × 50 mg, fed condition, steady state, individual values, N = 2, read-out: Tmax) of the same molecule?
**A.** 6 h

**Q.** What about the AUC ([2]; human, plasma, oral, 200 mg, 4 × 50 mg, fasted condition, steady state, N = 1) of the same molecule?
**A.** 958 µg·h/mL

**Q.** What about the Cmax ([2]; human, plasma, oral, 200 mg, 4 × 50 mg, fasted condition, steady state, N = 1, read-out: Cmax) of the same molecule?
**A.** 47500 ng/mL

**Q.** What about the Tmax ([2]; human, plasma, oral, 200 mg, 4 × 50 mg, fasted condition, steady state, N = 1, read-out: Tmax) of the same molecule?
**A.** 1 h

**Q.** What about the AUC ([2]; human, plasma, oral, 200 mg, 4 × 50 mg, fed condition, steady state, N = 1) of the same molecule?
**A.** 1010 µg·h/mL

**Q.** And the Cmax ([2]; human, plasma, oral, 200 mg, 4 × 50 mg, fed condition, steady state, N = 1, read-out: Cmax)?
**A.** 48400 ng/mL

**Q.** What about the Tmax ([2]; human, plasma, oral, 200 mg, 4 × 50 mg, fed condition, steady state, N = 1, read-out: Tmax) of the same molecule?
**A.** 24 h

**Q.** What about the AUC ([2]; human, plasma, oral, 400 mg, 2 × 200 mg, fasted condition, steady state, N = 1) of the same molecule?
**A.** 1100 µg·h/mL

**Q.** And the Cmax ([2]; human, plasma, oral, 400 mg, 2 × 200 mg, fasted condition, steady state, N = 1, read-out: Cmax)?
**A.** 61100 ng/mL

**Q.** And the AUC ([2]; human, plasma, oral, 400 mg, 2 × 200 mg, fed condition, steady state, N = 1)?
**A.** 1320 µg·h/mL

**Q.** And the Cmax ([2]; human, plasma, oral, 400 mg, 2 × 200 mg, fed condition, steady state, N = 1, read-out: Cmax)?
**A.** 64000 ng/mL

**Q.** What about the Tmax ([2]; human, plasma, oral, fasting conditions, 8 subjects at steady state, read-out: Tmax range) of the same molecule?
**A.** 0 to 4 h

**Q.** What about the Tmax ([2]; human, plasma, oral, fed conditions, 8 subjects at steady state, read-out: Tmax range) of the same molecule?
**A.** 0.5 to 24 h

**Q.** What about the “inhibition or reduction of serum IL-10” value ([3]; single dose 10 mg/kg, 12 hours post dose) of the same molecule?
**A.** intermediate inhibition or reduction

**Q.** And the “inhibition or reduction of serum IL-10” value ([3]; single dose 30 mg/kg, 12 hours post dose)?
**A.** completely inhibited or reduced serum IL-10

**Q.** What about the “inhibition or reduction of serum IL-10” value ([3]; single dose 100 mg/kg, 12 hours post dose) of the same molecule?
**A.** completely inhibited or reduced serum IL-10

**Q.** What about the “inhibition or reduction of serum IL-10” value ([3]; single dose, 24 hours post dose) of the same molecule?
**A.** lost at 24 hours post dose

**Q.** What about the IC50 [4] of the same molecule?
**A.** 77 ± 24 nM

**Q.** What about the AUC(0-inf) [5, 10] of the same molecule?
**A.** 16.4 µg·h/mL

**Q.** What about the C0 [5, 10] of the same molecule?
**A.** 1840 ng/mL

**Q.** What about the clearance [5, 10] of the same molecule?
**A.** 1.12 mL/min/kg

**Q.** And the half-life [5, 10]?
**A.** 11.9 h

**Q.** What about the Vd ([5]; male, plasma, Monkey, cynomolgus, 3M, 1 mg/kg IV in 70% PEG400, mean, read-out: Vdss) of the same molecule?
**A.** 0.748 L/kg

**Q.** What about the “CL as fraction of liver blood flow (LBF)” value ([5]; monkey, LBF 43.6 mL/min/kg) of the same molecule?
**A.** 1.7%

**Q.** And the IC50 [6]?
**A.** 3900 nM

**Q.** And the “concentrations at which general cytotoxicity was observed” value [7]?
**A.** ≥ 20 µM
